Reference: article PMC4979471 (Cell Death Discovery, 2015)
Where two headings read alike, the source gives them in different places.

Columns and labels:
Experiment in all cases: Kinase selectivity, P33-radiolabeled assay
Format in all cases: biochemical
Settings in all cases: 10 μM ATP
BRAF = biological target: T1, BRAF (Homo sapiens, UniProt P15056)
T1 construct: purchased Reaction Biology Corp
In short: (§1)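 Percent residual kinase activity versus DMSO is reported. Conditions: compound at 10 μM, ATP at 10 μM, n = 2.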

HGK/MAP4K4 = biological target: T2, HGK/MAP4K4 (Homo sapiens, UniProt O95819)
T2 construct: purchased Reaction Biology Corp
In short: as §1

NIK/MAP3K14 = biological target: T3, NIK/MAP3K14 (Homo sapiens, UniProt Q99558)
T3 construct: purchased Reaction Biology Corp
T3 sequence (Q99558 whole entry): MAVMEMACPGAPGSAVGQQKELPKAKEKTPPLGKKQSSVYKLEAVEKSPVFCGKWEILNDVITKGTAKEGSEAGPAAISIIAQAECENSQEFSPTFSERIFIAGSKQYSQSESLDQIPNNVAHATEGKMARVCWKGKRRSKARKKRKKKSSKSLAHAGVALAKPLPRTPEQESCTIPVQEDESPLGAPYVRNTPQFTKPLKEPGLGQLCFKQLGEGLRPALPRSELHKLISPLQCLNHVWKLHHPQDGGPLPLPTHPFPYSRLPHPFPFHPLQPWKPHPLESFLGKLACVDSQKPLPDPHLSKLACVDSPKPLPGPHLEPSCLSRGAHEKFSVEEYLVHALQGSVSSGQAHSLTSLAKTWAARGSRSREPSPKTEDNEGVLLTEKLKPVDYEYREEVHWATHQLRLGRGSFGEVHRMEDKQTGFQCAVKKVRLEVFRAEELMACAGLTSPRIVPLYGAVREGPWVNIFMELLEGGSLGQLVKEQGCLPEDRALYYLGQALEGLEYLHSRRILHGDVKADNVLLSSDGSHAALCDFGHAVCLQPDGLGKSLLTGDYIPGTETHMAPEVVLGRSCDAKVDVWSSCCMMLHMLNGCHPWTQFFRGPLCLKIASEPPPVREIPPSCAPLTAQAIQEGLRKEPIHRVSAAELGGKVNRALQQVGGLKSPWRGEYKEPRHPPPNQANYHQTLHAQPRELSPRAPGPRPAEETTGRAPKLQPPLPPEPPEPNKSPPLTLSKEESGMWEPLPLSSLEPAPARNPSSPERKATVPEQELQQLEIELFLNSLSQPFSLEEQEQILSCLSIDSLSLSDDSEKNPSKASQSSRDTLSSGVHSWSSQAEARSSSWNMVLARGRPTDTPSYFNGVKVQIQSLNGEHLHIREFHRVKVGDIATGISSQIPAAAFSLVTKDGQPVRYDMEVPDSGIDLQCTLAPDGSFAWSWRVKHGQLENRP
In short: as §1

PAK3 = biological target: T4, PAK3 (Homo sapiens, UniProt O75914)
T4 construct: purchased Reaction Biology Corp
T4 sequence (O75914 whole entry): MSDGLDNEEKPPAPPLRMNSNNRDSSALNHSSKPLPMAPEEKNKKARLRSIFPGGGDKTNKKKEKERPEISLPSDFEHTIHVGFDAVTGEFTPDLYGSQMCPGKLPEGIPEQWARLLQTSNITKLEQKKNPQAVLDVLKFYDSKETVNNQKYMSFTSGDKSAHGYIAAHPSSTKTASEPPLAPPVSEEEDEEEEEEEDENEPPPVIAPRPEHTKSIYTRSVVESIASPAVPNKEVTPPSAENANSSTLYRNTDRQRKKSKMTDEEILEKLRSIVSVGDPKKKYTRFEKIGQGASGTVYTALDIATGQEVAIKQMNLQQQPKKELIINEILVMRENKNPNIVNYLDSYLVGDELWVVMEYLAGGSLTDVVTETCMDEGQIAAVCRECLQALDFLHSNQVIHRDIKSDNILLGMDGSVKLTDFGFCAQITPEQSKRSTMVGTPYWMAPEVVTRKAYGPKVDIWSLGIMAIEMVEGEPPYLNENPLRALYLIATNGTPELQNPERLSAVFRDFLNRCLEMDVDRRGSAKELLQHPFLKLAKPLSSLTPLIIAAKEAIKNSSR
In short: as §1

ROCK1 = biological target: T5, ROCK1 (Homo sapiens, UniProt Q13464)
T5 construct: purchased Reaction Biology Corp
T5 sequence (Q13464 whole entry): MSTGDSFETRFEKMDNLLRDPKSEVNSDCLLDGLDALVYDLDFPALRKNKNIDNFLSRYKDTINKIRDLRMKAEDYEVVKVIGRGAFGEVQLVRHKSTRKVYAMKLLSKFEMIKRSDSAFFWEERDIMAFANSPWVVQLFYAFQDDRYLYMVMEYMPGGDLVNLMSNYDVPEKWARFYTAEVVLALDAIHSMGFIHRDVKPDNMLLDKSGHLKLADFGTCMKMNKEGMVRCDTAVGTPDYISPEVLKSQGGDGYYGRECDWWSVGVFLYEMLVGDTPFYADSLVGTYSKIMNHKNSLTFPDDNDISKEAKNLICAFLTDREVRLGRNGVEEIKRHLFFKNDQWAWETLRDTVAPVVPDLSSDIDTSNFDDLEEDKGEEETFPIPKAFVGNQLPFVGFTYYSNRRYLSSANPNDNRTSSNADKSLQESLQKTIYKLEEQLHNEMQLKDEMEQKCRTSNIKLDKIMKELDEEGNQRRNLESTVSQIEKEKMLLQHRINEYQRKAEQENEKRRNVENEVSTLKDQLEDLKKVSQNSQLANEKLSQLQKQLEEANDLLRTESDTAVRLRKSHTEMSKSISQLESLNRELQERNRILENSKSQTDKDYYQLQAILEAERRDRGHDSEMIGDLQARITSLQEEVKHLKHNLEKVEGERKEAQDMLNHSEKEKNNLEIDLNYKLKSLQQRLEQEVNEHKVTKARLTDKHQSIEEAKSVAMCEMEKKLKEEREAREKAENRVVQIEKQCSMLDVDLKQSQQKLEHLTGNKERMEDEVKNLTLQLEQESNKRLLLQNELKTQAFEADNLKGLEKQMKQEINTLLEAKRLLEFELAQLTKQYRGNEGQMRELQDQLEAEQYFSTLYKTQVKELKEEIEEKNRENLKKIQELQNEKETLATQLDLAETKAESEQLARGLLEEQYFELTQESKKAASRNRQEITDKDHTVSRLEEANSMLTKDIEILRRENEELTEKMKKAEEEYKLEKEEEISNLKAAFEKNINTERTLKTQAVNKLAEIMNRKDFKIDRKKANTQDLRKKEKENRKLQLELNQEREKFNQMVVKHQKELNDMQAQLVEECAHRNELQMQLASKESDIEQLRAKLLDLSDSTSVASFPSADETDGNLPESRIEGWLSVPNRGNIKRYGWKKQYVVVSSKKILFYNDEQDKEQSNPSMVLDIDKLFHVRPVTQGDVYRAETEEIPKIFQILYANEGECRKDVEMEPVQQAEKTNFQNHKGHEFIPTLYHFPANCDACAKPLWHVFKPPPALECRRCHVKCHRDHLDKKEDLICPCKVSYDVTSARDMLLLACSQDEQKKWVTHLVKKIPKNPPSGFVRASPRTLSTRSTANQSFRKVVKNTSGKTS
In short: as §1

SRMS = biological target: T6, SRMS (Homo sapiens, UniProt Q9H3Y6)
T6 construct: purchased Reaction Biology Corp
T6 sequence (Q9H3Y6 whole entry): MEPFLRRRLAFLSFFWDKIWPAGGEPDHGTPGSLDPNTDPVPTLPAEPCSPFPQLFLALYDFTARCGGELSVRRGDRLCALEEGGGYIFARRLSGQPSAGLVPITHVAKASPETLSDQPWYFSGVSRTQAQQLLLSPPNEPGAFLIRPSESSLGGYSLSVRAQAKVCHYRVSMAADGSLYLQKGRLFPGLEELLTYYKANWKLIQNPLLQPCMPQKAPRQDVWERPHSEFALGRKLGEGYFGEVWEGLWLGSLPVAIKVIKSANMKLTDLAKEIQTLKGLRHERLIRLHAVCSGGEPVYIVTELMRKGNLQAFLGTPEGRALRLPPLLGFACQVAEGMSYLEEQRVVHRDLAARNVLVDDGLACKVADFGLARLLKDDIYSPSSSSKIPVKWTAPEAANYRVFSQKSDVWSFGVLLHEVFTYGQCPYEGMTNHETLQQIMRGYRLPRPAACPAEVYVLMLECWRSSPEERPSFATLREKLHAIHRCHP
In short: as §1

ULK1 = biological target: T7, ULK1 (Homo sapiens, UniProt O75385)
T7 construct: purchased Reaction Biology Corp
T7 sequence (O75385 1-1050): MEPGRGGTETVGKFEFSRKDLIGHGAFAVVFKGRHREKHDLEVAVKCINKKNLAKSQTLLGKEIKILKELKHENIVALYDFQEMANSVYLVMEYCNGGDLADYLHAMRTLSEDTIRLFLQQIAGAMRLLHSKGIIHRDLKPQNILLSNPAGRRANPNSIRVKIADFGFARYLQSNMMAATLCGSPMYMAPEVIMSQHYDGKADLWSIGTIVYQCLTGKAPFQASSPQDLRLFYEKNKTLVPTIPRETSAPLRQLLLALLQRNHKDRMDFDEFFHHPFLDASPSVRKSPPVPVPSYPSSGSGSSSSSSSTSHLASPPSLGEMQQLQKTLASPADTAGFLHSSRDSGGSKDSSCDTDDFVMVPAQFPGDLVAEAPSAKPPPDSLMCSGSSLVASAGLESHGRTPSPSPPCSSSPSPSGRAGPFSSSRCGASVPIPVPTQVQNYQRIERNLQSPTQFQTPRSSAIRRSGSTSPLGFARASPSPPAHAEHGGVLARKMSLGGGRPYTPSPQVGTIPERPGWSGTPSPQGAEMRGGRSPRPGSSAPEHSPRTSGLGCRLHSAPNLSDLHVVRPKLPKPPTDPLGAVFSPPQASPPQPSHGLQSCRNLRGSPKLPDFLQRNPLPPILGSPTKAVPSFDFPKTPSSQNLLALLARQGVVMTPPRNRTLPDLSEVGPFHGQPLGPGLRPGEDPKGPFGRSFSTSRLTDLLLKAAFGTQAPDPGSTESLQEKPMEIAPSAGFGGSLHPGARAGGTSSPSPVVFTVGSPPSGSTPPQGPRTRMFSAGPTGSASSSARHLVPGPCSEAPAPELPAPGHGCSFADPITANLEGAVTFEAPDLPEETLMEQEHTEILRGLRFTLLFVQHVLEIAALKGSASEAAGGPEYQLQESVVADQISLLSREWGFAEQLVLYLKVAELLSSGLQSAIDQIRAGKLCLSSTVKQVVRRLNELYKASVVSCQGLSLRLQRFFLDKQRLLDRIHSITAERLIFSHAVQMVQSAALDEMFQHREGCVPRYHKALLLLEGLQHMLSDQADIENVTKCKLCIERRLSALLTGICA
In short: as §1

ULK3 = biological target: T8, ULK3 (Homo sapiens, UniProt Q6PHR2)
T8 construct: purchased Reaction Biology Corp
T8 sequence (Q6PHR2 1-472): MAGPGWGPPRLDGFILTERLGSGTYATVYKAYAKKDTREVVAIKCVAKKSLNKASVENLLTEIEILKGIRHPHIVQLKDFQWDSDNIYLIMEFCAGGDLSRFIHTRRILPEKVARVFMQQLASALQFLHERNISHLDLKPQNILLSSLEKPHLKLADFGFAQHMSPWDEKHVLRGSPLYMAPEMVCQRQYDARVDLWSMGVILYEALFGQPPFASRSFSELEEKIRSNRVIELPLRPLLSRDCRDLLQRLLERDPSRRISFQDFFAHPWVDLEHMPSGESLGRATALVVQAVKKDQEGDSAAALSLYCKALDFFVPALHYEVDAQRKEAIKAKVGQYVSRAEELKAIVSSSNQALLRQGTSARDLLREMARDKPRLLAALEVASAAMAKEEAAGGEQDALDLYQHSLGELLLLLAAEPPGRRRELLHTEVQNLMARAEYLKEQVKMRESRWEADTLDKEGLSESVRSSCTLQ
In short: as §1

[1] = read-out: % Enzyme Activity (relative to DMSO controls) AVG
[2] = read-out: % Enzyme Activity (relative to DMSO controls) Data 1
[3] = read-out: % Enzyme Activity (relative to DMSO controls) Data 2

T1 sequence (P15056 whole entry): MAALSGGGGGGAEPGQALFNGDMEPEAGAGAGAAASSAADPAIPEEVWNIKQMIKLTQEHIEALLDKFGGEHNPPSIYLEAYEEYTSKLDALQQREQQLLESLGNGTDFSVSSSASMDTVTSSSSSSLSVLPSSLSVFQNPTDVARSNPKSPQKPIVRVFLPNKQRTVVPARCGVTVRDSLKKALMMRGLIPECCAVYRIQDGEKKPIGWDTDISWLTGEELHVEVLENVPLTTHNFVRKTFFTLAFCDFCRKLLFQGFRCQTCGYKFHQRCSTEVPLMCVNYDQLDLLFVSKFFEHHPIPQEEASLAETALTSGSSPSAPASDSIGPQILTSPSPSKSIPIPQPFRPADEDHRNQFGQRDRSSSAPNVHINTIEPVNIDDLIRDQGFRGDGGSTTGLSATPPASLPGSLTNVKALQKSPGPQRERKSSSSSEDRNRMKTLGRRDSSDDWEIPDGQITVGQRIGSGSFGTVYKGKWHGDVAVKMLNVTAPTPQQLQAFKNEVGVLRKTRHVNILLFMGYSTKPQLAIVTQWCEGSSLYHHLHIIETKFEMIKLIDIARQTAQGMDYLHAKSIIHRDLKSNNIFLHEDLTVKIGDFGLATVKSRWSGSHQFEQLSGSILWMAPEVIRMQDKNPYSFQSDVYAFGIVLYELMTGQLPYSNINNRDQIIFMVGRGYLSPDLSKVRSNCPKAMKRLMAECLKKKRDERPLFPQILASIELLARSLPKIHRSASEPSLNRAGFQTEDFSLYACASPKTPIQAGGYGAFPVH

CC(C)(C)C(=O)N1N=CC[C@H]1c1ccccc1 [GSK′963]
remaining activity at 10 µM (BRAF; [1]): 89.4% | remaining activity at 10 µM (BRAF; [2]): 89.4% | remaining activity at 10 µM (BRAF; [3]): 89.4% | remaining activity at 10 µM (HGK/MAP4K4; [1]): 95.7% | remaining activity at 10 µM (HGK/MAP4K4; [2]): 94.5% | remaining activity at 10 µM (HGK/MAP4K4; [3]): 97% | remaining activity at 10 µM (NIK/MAP3K14; [1]): 98.2% | remaining activity at 10 µM (NIK/MAP3K14; [2]): 93.4% | remaining activity at 10 µM (NIK/MAP3K14; [3]): 103% | remaining activity at 10 µM (PAK3; [1]): 103% | remaining activity at 10 µM (PAK3; [2]): 102% | remaining activity at 10 µM (PAK3; [3]): 105% | remaining activity at 10 µM (ROCK1; [1]): 105% | remaining activity at 10 µM (ROCK1; [2]): 103% | remaining activity at 10 µM (ROCK1; [3]): 106% | remaining activity at 10 µM (SRMS; [1]): 101% | remaining activity at 10 µM (SRMS; [2]): 98.6% | remaining activity at 10 µM (SRMS; [3]): 103% | remaining activity at 10 µM (ULK1; [1]): 106% | remaining activity at 10 µM (ULK1; [2]): 106% | remaining activity at 10 µM (ULK1; [3]): 106% | remaining activity at 10 µM (ULK3; [1]): 91.6% | remaining activity at 10 µM (ULK3; [2]): 92.2% | remaining activity at 10 µM (ULK3; [3]): 90.9%
